“And” between values parts separate entries of the source, which are not always exact repeats. Equal values may be shown once.
Experiments:
[1] = system: IDH1(R132H) primary human AML cells; test: AML clearance in peripheral blood (flow cytometry, % hCD33+hCD45+ of total white cells), human AML PDx models in NSG mice; assay type: in vivo; conditions: for AML clearance (% hCD33 + hCD45+ (of total white cells)): 2 mg/kg Cytarabine, IP, (QDx5, rest2)X2) 14 days off)x2, each value one animal, 2 mg/kg
Procedure: (§1) Compounds and Formulation. For in vivo studies, each test article is prepared at an appropriate concentration with vehicle. […] Compound A is prepared fresh at the appropriate concentrations with vehicle every 7 days and stored at 4° C. between doses. […] Cytarabine is prepared fresh weekly by dilution with sterile saline from stock solution of Cytarabine (injection 20 mg/mL, (Pfizer injectables')). Azacitidine (Sigma, Lot #MKBR7212) is formulated in sterile water and is prepared fresh daily immediately before dosing. In vivo human AML PDx models. […] Two models are used in the studies: […] As needed, splenocytes from tumor-bearing mice are used to propagate and expand the models, as described. Each test article is prepared as described above at an appropriate concentration with vehicle to give animals the doses tested in this study at a dosing volume of 10 μL/gram body weight. Mice receiving Compound A (PO, QD) are treated at the indicated doses for the duration of the study. The combination agents are dosed as follows: […] Treated mice are assessed in comparison to vehicle treated and naïve (non-tumor bearing) control mice. Body weight is recorded twice per week. […] AML PDx model propagation. […] Spleens are processed and splenocytes isolated as described below. Two hundred μL per subject of the splenocyte prep is injected IV (intravenous, tail vein) into recipient NSG mice. […] Once engraftment is confirmed, the mice are monitored biweekly until ready to be put on study. […] Submandibular blood is collected. Spleen/Splenocyte Processing and Prep. After excision, a spleen is weighed, and […] is placed in a standard sterile 15 mL polypropylene conical tube containing PBS, and placed on ice. […] The spleen is placed in ice cold sterile PBS in a 15 mL collection tube. The spleen is removed from the collection tube and placed in a 100 micron 50 mL conical tube cell strainer (BD Falcon #352360). The spleen is processed by gentle rubbing of the spleen tissue against the surface of the cell strainer with the end of a 5 mL syringe plunger in a circular motion. The surface of the strainer is rinsed with 10 mL room temperature sterile DPBS (HyClone SH30028) 3 times during the process. […] The cell pellet is collected by centrifugation (300×g) and washed three times with 30 mL sterile DPBS. The cells are counted and resuspended in DPBS at the desired implant concentration. Bone Marrow Collection. […] Flow cytometry analysis of human white cells. Submandibular blood samples from in vivo studies are collected. Fluor-conjugated antibody stains are added according to the manufacturer's instructions (anti-human CD33-PE (clone WM53, BD Cat #555450), anti-human CD14-APC (clone MφpP9, BD Cat #340436), anti-human CD15-V450 (clone HI98, BD Cat #561584), anti-human CD117-BV421 (clone YB5.B8, BD Cat #562434), anti-human […]7 (clone ICRF44, BD Cat #557754), anti-human […]7 (clone HI30, BD Cat #557748), and anti-human CD3-FITC (clone SK7, BD Cat #340542)). The samples are incubated for 30 minutes at room temperature, protected from light. After the incubation, 1.5 mL 1×BD Lyse/Fix (37° C., (BD #558049)) is added to each sample and incubated for 12 minutes at room temperature. The tubes are centrifuged at 300×g for 7 minutes. BD Lyse/Fix solution is aspirated and the cell pellet washed with stain/wash buffer 3 times (1 wash step consisted of: pellet resuspended in 3 mL stain/wash buffer, centrifuged at 300×g, aspirated wash). Fixed cells are then resuspended in 300 to 400 μL stain/wash buffer. Samples are analyzed on a Becton Dickinson FACSVerse Flow cytometer (Cat #651155 Serial #Z6511550447) using standard flow cytometry principles and techniques. Samples are analyzed on the same day as they are stained and fixed. Population gating and data analysis of percent population are performed in the FACSuite software on the FACSVerse cytometer. Percent population values from the data analysis are plotted in Graphpad Prism or in JMP13. […]

2-HG production = test: Plasma 2-HG inhibition (LC-MS metabolite analysis in plasma of AML PDx model); assay type: in vivo, human
[2] = system: IDH1(R132H) primary human AML cells; test: Bone marrow AML clearance (flow cytometry), human AML PDx models in NSG mice; assay type: in vivo
Procedure: as §1

[3] = system: IDH1(R132H) primary human AML cells; test: AML cell differentiation in blood (flow cytometry, % hCD33+hCD11b+ of hCD45+ cells), human AML PDx models in NSG mice; assay type: in vivo; conditions: for AML cell differentiation (% hCD33 + hCD11b+ (of hCD45+ cells)): 2 mg/kg Cytarabine, IP, (QDx5, rest2)X2) 14 days off)x2, each value one animal, 2 mg/kg
Procedure: as §1

[4] = 2 mg/kg Cytarabine, IP, (QDx5, rest2)X2) 14 days off)x2, each line one animal
[5] = 2 mg/kg Cytarabine, IP, (QDx5, rest2)X2) 14 days off) × 2, each line one animal

## Nc1ccn([C@@H]2O[C@H](CO)[C@@H](O)[C@@H]2O)c(=O)n1 [Cytarabine, reference compound]
[1]; Treatment day 18
  AML clearance (% hCD33 + hCD45+ (of total white cells)): 8.04% and 3.22% and 3.24% and 8.64% and 3.23% and 3.50% and 4.40%
[1]; Treatment day 34
  AML clearance (% hCD33 + hCD45+ (of total white cells)): 9.07% and 2.02% and 3.5% and 2.54% and 1.79% and 2.04%
[1]; Treatment day 47
  AML clearance (% hCD33 + hCD45+ (of total white cells)): 8.25% and 8.31% and 5.29% and 4.92% and 2.29% and 4.71% and 5.51%
[1]; Treatment day 61
  AML clearance (% hCD33 + hCD45+ (of total white cells)): 17.63% and 29.86% and 14.99% and 42.59% and 15.49% and 29.04% and 29.58%
[1]; Treatment day 75
  AML clearance (% hCD33 + hCD45+ (of total white cells)): 56.57% and 60.59% and 22.85% and 59.75% and 36.77% and 44.17%
[1]; Treatment day 89
  AML clearance (% hCD33 + hCD45+ (of total white cells)): 76.67% and 78.11% and 57.04% and 81.53% and 79.57% and 68.92%
[1]; Treatment day −3
  AML clearance (% hCD33 + hCD45+ (of total white cells)): 21.32% and 14.8% and 13.68% and 21.94% and 21.7% and 20% and 17.15%
[1]; day 47, group C: cytarabine (2 mg/kg), vehicle 86%
  % peripheral blood AML cells (treatment group value): 5.2%
2-HG production; [4]
  % Inhibition of 2-HG (plasma): 78.844% and 68.361% and 88.982% and 79.768% and 71.68% and 76.685% and 68.331%
  Naive Subtracted 2-HG (plasma): 2.348 µM and 3.512 µM and 1.223 µM and 2.246 µM and 3.143 µM and 2.588 µM and 3.515 µM
  Plasma 2-HG: 3.256 µM and 4.42 µM and 2.131 µM and 3.154 µM and 4.051 µM and 3.496 µM and 4.423 µM
2-HG production; group C: cytarabine (2 mg/kg), vehicle 100%
  % plasma 2-HG (treatment group value): 24%
[2]; [5]
  Bone Marrow AML Clearance: % hCD33 + hCD45+ (% of white cells): 64.38% and 75.48% and 39.66% and 80.32%
  Bone Marrow AML Clearance: % hCD45+ (% of white cells): 71.88% and 78.06% and 44.54% and 80.75%
[2]; group C: cytarabine (2 mg/kg), vehicle 94%
  % human AML cells in bone marrow (of white cells; lower = more clearance): 63%
[3]; Treatment day 18
  AML cell differentiation (% hCD33 + hCD11b+ (of hCD45+ cells)): 15.93% and 18.69% and 13.00% and 11.66% and 14.07% and 10.70% and 11.81%
[3]; Treatment day 34
  AML cell differentiation (% hCD33 + hCD11b+ (of hCD45+ cells)): 37.13% and 33.07% and 31.02% and 31.17% and 33.03% and 37.1%
[3]; Treatment day 47
  AML cell differentiation (% hCD33 + hCD11b+ (of hCD45+ cells)): 8.3% and 7.84% and 7.69% and 5.82% and 16.79% and 5.09% and 7.21%
[3]; Treatment day 61
  AML cell differentiation (% hCD33 + hCD11b+ (of hCD45+ cells)): 9.5% and 8.65% and 9.29% and 6.94% and 10.6% and 7.78% and 8.46%
[3]; Treatment day 75
  AML cell differentiation (% hCD33 + hCD11b+ (of hCD45+ cells)): 5.65% and 7.65% and 11.09% and 11.48% and 10% and 10.46%
[3]; Treatment day 89
  AML cell differentiation (% hCD33 + hCD11b+ (of hCD45+ cells)): 8.75% and 10.17% and 8.87% and 18.02% and 12.49% and 11.08%
[3]; Treatment day −3
  AML cell differentiation (% hCD33 + hCD11b+ (of hCD45+ cells)): 16.46% and 20.43% and 14.95% and 8.62% and 13.39% and 10.09% and 12.17%
[3]; day 47, group C: cytarabine (2 mg/kg), vehicle 10%
  % AML cell differentiation (treatment group value): 8%
